Data on two molecules can be found in patent US20040259959A1, “Method and pharmaceutical preparation for reducing the activity of cells” (priority 2001, published 2004).

The subject of data set [1] is H-ras-induced cell transformation. The conditions noted are these: mammalian cells producing phytoene; cited from earlier work.
Data set [2] concerns dimethylbenz(a)anthracene(DMBA)/UV-B induced tumors. The conditions noted are these: mice; cited from earlier work.
For a further data set, the system named is UV-B induced tumors. The conditions noted are these: mice treated with phytoene; cited from earlier work.
Data set [3] relates to MCF-7 mammary cancer cell. The data set can be described thus: MCF-7 mammary cancer cell proliferation ([3H]thymidine incorporation), stimulated by 3% serum. The data set is classed as cell-based. On the procedure:
FIG. 1. […] MCF-7 mammary cancer cell were preincubated for 24 hours in 0.5% serum and then growth ([^3H]thymidine incorporation) was stimulated by 3% serum. Stimulated cells were treated for 3 days with the indicated concentrations of the astaxanthin alone or in combination with 0.3 μM lycopene (FIG. 1A). The high concentrations of lycopene and astaxanthin (FIG. 1B) are indicated. Data presented are the mean±SE of 2-3 independent experiments performed in quadruplicates.
FIG. 4. […] MCF-7 mammary cancer cell were preincubated for 24 hours in 0.5% serum and then growth ([^3H]thymidine incorporation) was stimulated by 3% serum. Stimulated cells were treated for 3 days with the indicated concentrations of the phytoene and phytofluene (phytoene) mixture alone or in combination with 0.3 μM lycopene (FIG. 4A). The high concentrations of lycopene and phytoene plus phytofluene (FIG. 4B) are indicated. Data presented are the mean±SE of 2-3 independent experiments performed in quadruplicates.
FIG. 5. […] MCF-7 mammary cancer cell were preincubated for 24 hours in 0.5% serum and then growth ([^3H]thymidine incorporation) was stimulated by 3% serum. Stimulated cells were treated for 3 days with the indicated concentrations Of the beta-carotene alone or in combination with 0.3 μM lycopene (FIG. 5A). The high concentrations of lycopene and beta-carotene (FIG. 5B) are indicated. Data presented are the mean±SE of 2-3 independent experiments performed in quadruplicates.
For orientation: Incorporation of labelled thymidine or its analogues reports DNA synthesis.

Data set [4] has as its system LNCaP prostate cancer cell. Kind of data set: DHT induced LNCaP prostate cancer cell proliferation ([3H]thymidine incorporation). The data set is classed as cell-based. The settings on record: 3 days. The procedure: FIG. 2. […] LNCaP prostate cancer cell were preincubated for 24 hours in 1.5% serum and then growth ([^3]thymidine incorporation) was stimulated by addition of […] (DHT). Stimulated cells were treated for 3 days with the indicated concentrations of the phytoene and phytofluene (phytoene) mixture alone or in combination with 0.3 μM Lycopene (plus lycopene) (FIG. 2A). The high concentrations of lycopene and phytoene plus phytofluene (FIG. 2B) are indicated. Data presented are the mean±SE of 2-3 independent experiments performed in quadruplicates.
FIG. 3. […] LNCaP prostate cancer cell were preincubated for 24 hours in 1.5% serum and then growth ([^3]thynidine incorporation) was stimulated by addition of 10^−9 M dihydrotestosterone DHT). Stimulated cells were treated for 3 days with the indicated concentrations of the beta-carotene alone or in combination with 0.3 μM lycopene (FIG. 3A). The high concentrations of lycopene and beta-carotene (FIG. 3B) are indicated. Data presented are the mean±SE of 2-3 independent experiments performed in quadruplicates.

For data set [5] the following is noted: subjects receiving high supplementation of lycopene; cited from earlier work.
The conditions of data set [6]: up to levels of 4 μM; cited from earlier work.

In the case of `CC(C)=CCC/C(C)=C/CC/C(C)=C/CC/C(C)=C/C=C/C=C(\C)CC/C=C(\C)CC/C=C(\C)CCC=C(C)C` [phytoene], the “resistance to H-ras-induced cell transformation” value in data set [1] is on record as “displayed resistance”. The “treating DMBA/UV-B induced tumors” value in data set [2] is “ineffective”. Further, in the data set on UV-B induced tumors, the “UV-B induced tumors developed versus control mice” value is reported as “fewer UV-B induced tumors than the control mice”.

Turning to `CC(C)=CCC/C(C)=C/C=C/C(C)=C/C=C/C(C)=C/C=C/C=C(C)/C=C/C=C(C)/C=C/C=C(\C)CCC=C(C)C` [lycopene], the “effect of lycopene on the inhibitory effects of astaxanthin on mammary cancer cell proliferation” value in data set [3] (MCF-7, 0.3 μM lycopene combined with astaxanthin, 3 days, FIG. 1) is reported as “enhances the inhibitory effects”. Besides, the “effect of lycopene on the inhibitory effects of beta-carotene on mammary cancer cell proliferation” value in data set [3] (MCF-7, 0.3 μM lycopene combined with beta-carotene, 3 days, FIG. 5) is “enhances the inhibitory effects”. Moreover, the “effect of lycopene on the inhibitory effects of phytoene and phytofluene on mammary cancer cell proliferation” value in data set [3] (MCF-7, 0.3 μM lycopene combined with phytoene and phytofluene mixture, 3 days, FIG. 4) is “enhances the inhibitory effects”. For the same molecule, the decrease in proliferation entry in data set [3] (breast cancer cells, lycopene alone at low concentration (0.3 μM)) is recorded as “no decrease in proliferation”. For the same molecule, the “concentration of lycopene alone giving the same dramatic inhibition of cancer cells as the combination” value in data set [3] (lycopene alone) lay in the range of 2 to 3 µM. Also, the “effect of lycopene on the inhibitory effects of beta-carotene on DHT induced prostate cancer cell proliferation” value in data set [4] (0.3 μM lycopene combined with beta-carotene, FIG. 3) is “enhances the inhibitory effects”. In addition, the “effect of lycopene on the inhibitory effects of phytoene and phytofluene on DHT induced prostate cancer cell proliferation” value in data set [4] (0.3 μM lycopene combined with phytoene and phytofluene mixture, FIG. 2) is given as “enhances the inhibitory effects”. The serum concentration plateau in data set [5] was 1000 to 1200 nM. In addition, in data set [6], the “in-vitro activity with increasing concentration” value is “improved activity with the increase of concentration”.
